Results on 15 compounds are retold here after ChEMBL document CHEMBL6096649, “Enantiomeric C-6 fluorinated swainsonine derivatives as highly selective and potent inhibitors of α-mannosidase and α-l-rhamnosidase: Design, synthesis and structure-activity relationship study” (Eur J Med Chem, 2025).

A value given as a limit tells only on which side of the number the result lay.

The target of assay [1] is Alpha-glucosidase (Saccharomyces cerevisiae S288c) (UniProt P53341+P38158+P07265). Kind of assay: Inhibition of yeast Alpha-glucosidase using p-nitrophenyl glycoside as substrate assessed as p-nitrophenol release at 1000 uM by spectrometric analysis relative to control. The class given is protein assay.
The species entered for another assay is Rattus norvegicus. Kind of assay: Inhibition of rat intestinal Alpha-glucosidase using p-nitrophenyl glycoside as substrate assessed as p-nitrophenol release at 1000 uM by spectrometric analysis relative to control.
In assay [2] the target is Alpha glucosidase (Homo sapiens) (UniProt O43451+P10253+P14410+Q2M2H8). The experiment in a line: Inhibition of human Alpha-glucosidase using p-nitrophenyl glycoside as substrate assessed as p-nitrophenol release at 1000 uM by spectrometric analysis relative to control. It counts as protein assay.
Assay [3] concerns the target T1, Alpha-mannosidase (Canavalia ensiformis) (UniProt C0HJB3).
T1 sequence (whole entry): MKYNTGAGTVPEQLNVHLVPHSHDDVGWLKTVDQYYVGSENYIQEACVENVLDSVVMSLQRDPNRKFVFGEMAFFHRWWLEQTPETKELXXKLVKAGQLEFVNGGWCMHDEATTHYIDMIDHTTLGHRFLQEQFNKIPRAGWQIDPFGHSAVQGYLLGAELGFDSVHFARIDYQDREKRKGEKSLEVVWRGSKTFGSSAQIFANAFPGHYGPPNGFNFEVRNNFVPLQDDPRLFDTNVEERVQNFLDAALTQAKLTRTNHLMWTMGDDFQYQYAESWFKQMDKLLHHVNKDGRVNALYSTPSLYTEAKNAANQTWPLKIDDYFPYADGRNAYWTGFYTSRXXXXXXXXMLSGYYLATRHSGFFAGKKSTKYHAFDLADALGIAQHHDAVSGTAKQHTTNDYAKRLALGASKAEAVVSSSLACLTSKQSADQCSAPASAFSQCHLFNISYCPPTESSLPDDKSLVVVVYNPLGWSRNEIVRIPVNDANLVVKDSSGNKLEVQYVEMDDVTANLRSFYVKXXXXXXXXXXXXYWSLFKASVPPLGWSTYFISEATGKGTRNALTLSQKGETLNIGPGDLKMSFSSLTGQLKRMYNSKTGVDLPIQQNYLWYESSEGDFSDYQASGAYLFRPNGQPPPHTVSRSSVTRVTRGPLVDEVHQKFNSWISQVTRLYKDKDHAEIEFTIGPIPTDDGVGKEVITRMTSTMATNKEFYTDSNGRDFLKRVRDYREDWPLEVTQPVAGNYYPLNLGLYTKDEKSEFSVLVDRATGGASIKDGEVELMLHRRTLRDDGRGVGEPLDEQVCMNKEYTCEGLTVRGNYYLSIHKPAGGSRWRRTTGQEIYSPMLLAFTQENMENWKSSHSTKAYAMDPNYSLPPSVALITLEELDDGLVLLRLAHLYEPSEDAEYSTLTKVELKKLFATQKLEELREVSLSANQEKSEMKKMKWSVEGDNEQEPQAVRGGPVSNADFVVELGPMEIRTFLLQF
The experiment in a line: Inhibition of jack bean alpha-mannosidase using p-nitrophenyl glycoside as substrate assessed as release of p-nitrophenol at 1000 uM by spectrometric analysis relative to control.

Assay [4] can be described thus: Inhibition of human liver Alpha-mannosidase.
A further assay deals with Penicillium decumbens. Kind of assay: Inhibition of Penicillium decumbens alpha-L-rhamnosidase using p-nitrophenyl glycoside as substrate assessed as release of p-nitrophenol at 1000 uM by spectrometric analysis relative to control.
The test system of a further assay is Aspergillus niger. The experiment in a line: Inhibition of Aspergillus niger amyloglucosidase using p-nitrophenyl glycoside as substrate assessed as release of p-nitrophenol at 1000 uM by spectrometric analysis relative to control.
Assay [5] addresses Alpha-galactosidase (Coffea arabica) (UniProt Q42656). Kind of assay: Inhibition of coffee bean alpha-galactosidase using p-nitrophenyl glycoside as substrate assessed as release of p-nitrophenol at 1000 uM by spectrometric analysis relative to control.
In the next assay the test system is Helix pomatia. The experiment in a line: Inhibition of snail beta-mannosidase using p-nitrophenyl glycoside as substrate assessed as release of p-nitrophenol at 1000 uM by spectrometric analysis relative to control.
For another assay, the species on record is Sus scrofa. The experiment in a line: Inhibition of porcine kidney Alpha alpha-trehalase using p-nitrophenyl glycoside as substrate assessed as release of p-nitrophenol at 1000 uM by spectrometric analysis relative to control.
The species entered for a further assay is Homo sapiens. The experiment in a line: Inhibition of human lysosome beta-glucosidase using p-nitrophenyl glycoside as substrate assessed as release of p-nitrophenol at 1000 uM by spectrometric analysis relative to control.
The species named for assay [6] is Bos taurus. Kind of assay: Inhibition of bovine liver beta-glucuronidase using p-nitrophenyl glycoside as substrate assessed as release of p-nitrophenol at 1000 uM by spectrometric analysis relative to control.
For assay [7], the species on record is Bos taurus. The experiment in a line: Inhibition of bovine liver beta-galactosidase using p-nitrophenyl glycoside as substrate assessed as release of p-nitrophenol at 1000 uM by spectrometric analysis relative to control.
In another assay the test system is Prunus dulcis. The experiment in a line: Inhibition of almond Beta-glucosidase using p-nitrophenyl glycoside as substrate assessed as release of p-nitrophenol at 1000 uM by spectrometric analysis relative to control.
The next assay concerns Escherichia coli. Kind of assay: Inhibition of Escherichia coli beta-glucuronidase using p-nitrophenyl glycoside as substrate assessed as release of p-nitrophenol at 1000 uM by spectrometric analysis relative to control.
Assay [8] is filed under the species Bos taurus. The experiment in a line: Inhibition of bovine liver beta-glucosidase using p-nitrophenyl glycoside as substrate assessed as release of p-nitrophenol at 1000 uM by spectrometric analysis relative to control.
The next assay concerns Oryza sativa. Kind of assay: Inhibition of rice Alpha-glucosidase using p-nitrophenyl glycoside as substrate assessed as p-nitrophenol release at 1000 uM by spectrometric analysis relative to control.
Another assay deals with HepG2. Kind of assay: Cytotoxicity activity against human HepG2 cells incubated for 48 hrs by CCK-8 assay. The conditions noted are these: HepG2, 48 h. It counts as functional, cell-based.
The next assay relates to 786-0. The experiment in a line: Cytotoxicity activity against human 786-0 cells incubated for 48 hrs by CCK-8 assay. The class given is functional, cell-based. The note with it: 786-0, 48 h.
A further assay relates to CAKI-1. Kind of assay: Cytotoxicity activity against human CAKI-1 cells incubated for 48 hrs by CCK-8 assay. It counts as functional, cell-based. The conditions noted are these: CAKI-1, 48 h.
Assay [9] can be described thus: Inhibition of Penicillium decumbens alpha-L-rhamnosidase using p-nitrophenyl glycoside as substrate assessed as release of p-nitrophenol by spectrometric analysis.
The next assay addresses T2, Alpha-mannosidase (Canavalia ensiformis, UniProt C0HJB3).
T2 sequence (C0HJB3 whole entry): T1 sequence (whole entry)
The experiment in a line: Inhibition of jack bean alpha-mannosidase using p-nitrophenyl glycoside as substrate assessed as release of p-nitrophenol by spectrometric analysis.

Chain of Alpha-galactosidase (Coffea arabica) (Q42656 16-378 limits assumed): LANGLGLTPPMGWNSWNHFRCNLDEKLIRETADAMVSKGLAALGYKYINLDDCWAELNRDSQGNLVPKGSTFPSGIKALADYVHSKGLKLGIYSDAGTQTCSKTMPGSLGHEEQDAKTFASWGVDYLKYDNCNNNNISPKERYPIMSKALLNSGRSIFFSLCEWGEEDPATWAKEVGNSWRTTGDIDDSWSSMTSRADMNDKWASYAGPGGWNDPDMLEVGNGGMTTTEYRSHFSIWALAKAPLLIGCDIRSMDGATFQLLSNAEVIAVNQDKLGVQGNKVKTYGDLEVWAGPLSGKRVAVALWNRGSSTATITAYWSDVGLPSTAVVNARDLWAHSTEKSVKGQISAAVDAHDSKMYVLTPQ

`O[C@H]1[C@H]2[C@@H](O)CCCN2C[C@H]1O`: the inhibition came to 0% in assay [1]; 0% in the assay listed under Rattus norvegicus; 0% in [2]; 51% in [3]; 47.5% with Penicillium decumbens; 1.8% in the assay on Aspergillus niger. Further, the inhibition is 0% in assay [5]; 0% in the assay with Helix pomatia; 0% in the assay listed under Sus scrofa; 0% in the assay filed under Homo sapiens; 5.7% in the assay filed under Bos taurus [6]; 0.8% in the assay listed under Bos taurus [7]. The inhibition in the assay on Prunus dulcis was 3.2%; with Escherichia coli, 0%; in the assay listed under Bos taurus [8] it was 4.5%; in the assay on Oryza sativa it was 0%. In assay [4], this compound displayed an IC50 of 51 µM.
In the case of `O[C@H]1[C@H]2[C@H](O)CC(F)(F)CN2C[C@H]1O`, the inhibition turned out to be 0% in assay [1]; 11.6% in the assay filed under Rattus norvegicus; 8.9% in assay [2]; 0.44% in [3]; 20.4% in the assay on Penicillium decumbens; 2.7% with Aspergillus niger. The inhibition was found to be 0.6% in [5]; 40% in the assay on Helix pomatia; 0% in the assay listed under Sus scrofa; 0% in the assay filed under Homo sapiens; 16.7% in the assay listed under Bos taurus [6]; 13.3% in the assay listed under Bos taurus [7]. Besides, the inhibition turned out to be 3.2% with Prunus dulcis, 0% in the assay with Escherichia coli and 23.7% in the assay listed under Bos taurus [8]. The IC50 in the assay with HepG2, in the assay with 786-0 and in the assay on CAKI-1 was more than 200 µM in each case.
On to `C[C@@H]1[C@H](O)[C@H]2[C@@H](O)[C@@H](O)CN2C[C@@]1(C)O`, for which, in assay [9], the IC50 came to 21.3 µM.
For the compound `O[C@H]1[C@H]2[C@H](O)CCCN2C[C@H]1O` [TRIDOLGOSIR], the inhibition turned out to be 0% in assay [1]; 13.1% in the assay listed under Rattus norvegicus; 0% in assay [2]; 0.28% in assay [3]; 34.2% in the assay with Penicillium decumbens; 8.6% in the assay with Aspergillus niger. Also, the inhibition in [5] came to 0%; in the assay with Helix pomatia, 0%; in the assay listed under Sus scrofa, 1%; in the assay filed under Homo sapiens, 0%; in the assay listed under Bos taurus [6], 8.8%; in the assay filed under Bos taurus [7], 5.8%. Also, the inhibition with Prunus dulcis came out at 2.1%; with Escherichia coli, 0%; in the assay listed under Bos taurus [8] it was 11.5%; with Oryza sativa, 31.2%. This compound also returned an IC50 in assay [4] of 0.28 µM.
On to `CC(C)(C)c1ccc(CC[C@H]2CC[C@@H](O)[C@@H]3[C@H](O)[C@H](O)CN23)cc1`, for which the IC50 on Alpha-mannosidase is 0.42 µM.
Still for that read-out and setting: with `O[C@H]1[C@H]2[C@H](O)C[C@H](CCOCc3ccccc3)CN2C[C@H]1O` the figure was 230 µM; with `O=C(C[C@H]1CC[C@@H](O)[C@@H]2[C@H](O)[C@H](O)CN12)c1ccccc1`, 0.51 µM.
As for `O[C@@H]1[C@@H]2[C@@H](O)CCCN2C[C@@H]1O`, the inhibition in assay [1] turned out to be 0%; in the assay filed under Rattus norvegicus, 26.5%; in assay [2], 3.4%; in assay [3], 7.2%; in the assay with Penicillium decumbens, 0.26%; in the assay with Aspergillus niger it was 17.7%. In addition, the inhibition was determined as 0% in assay [5]; 0% with Helix pomatia; 4.8% in the assay listed under Homo sapiens; 0% in the assay listed under Bos taurus [6]; 48.3% in the assay listed under Bos taurus [7]; 7.4% in the assay with Prunus dulcis. Further, the figures for the inhibition with Escherichia coli, in the assay listed under Bos taurus [8] and with Oryza sativa were 11.3%, 33% and 0%, respectively. For the same compound, the half-maximal inhibitory concentration (IC50) in assay [9] came to 0.13 µM.
As to `O[C@H]1[C@H]2[C@H](O)C[C@@H](F)CN2C[C@H]1O`, the inhibition in assay [1] came out at 2.2%; in the assay listed under Rattus norvegicus it was 22.8%; in [2], 5.6%; in assay [3] it was 0.5%; in the assay on Penicillium decumbens it was 8.3%; with Aspergillus niger, 11.8%. For the same compound, the inhibition in [5] worked out at 0%; in the assay on Helix pomatia it was 0%; in the assay listed under Sus scrofa, 2.5%; in the assay listed under Homo sapiens, 0.4%; in the assay listed under Bos taurus [6] it was 2.6%; in the assay listed under Bos taurus [7], 0.8%. In addition, the inhibition in the assay on Prunus dulcis was 0.5%; with Escherichia coli, 0%; in the assay filed under Bos taurus [8], 5.1%. For the same compound, the IC50 in the assay with HepG2, in the assay with 786-0 and in the assay with CAKI-1 was more than 200 µM in each case.
On to `O[C@@H]1[C@@H]2[C@@H](O)[C@H](O)[C@H](O)CN2C[C@@H]1O`, for which, in assay [9], the IC50 was determined as 530 µM.
Take `CC(C)(C)c1ccc(CC[C@@H]2CC[C@@H](O)[C@@H]3[C@H](O)[C@H](O)CN23)cc1`: the IC50 at Alpha-mannosidase came out at 3.7 µM.
As to `O[C@@H]1[C@@H]2[C@H](O)C[C@@H](F)CN2C[C@@H]1O`, the inhibition in assay [1] is 4.5%; in the assay filed under Rattus norvegicus, 11.6%; in assay [2] it was 0%; in [3], 18.8%; in the assay on Penicillium decumbens, 125%; with Aspergillus niger, 11.4%. Further, the inhibition is 0% in assay [5]; 1.7% in the assay on Helix pomatia; 11.7% in the assay filed under Sus scrofa; 3.4% in the assay listed under Homo sapiens; 0.1% in the assay filed under Bos taurus [6]; 15% in the assay listed under Bos taurus [7]. In addition, the inhibition with Prunus dulcis is 4.7%; in the assay on Escherichia coli, 0%; in the assay filed under Bos taurus [8], 9%; in the assay on Oryza sativa it was 23.5%.
For `CC(C)(C)c1ccc(C(=O)C[C@@H]2CC[C@@H](O)[C@@H]3[C@H](O)[C@H](O)CN23)cc1`, the IC50 on Alpha-mannosidase came out at 2.54 µM.
`C[C@@H]1C[C@H](O)[C@H]2[C@@H](O)[C@@H](O)CN2C1`: the IC50 in assay [9] was found to be 0.034 µM.
As for `O[C@H]1[C@H]2[C@@H](O)CC(F)(F)CN2C[C@H]1O`, the inhibition in assay [1] worked out at 1.1%; in the assay listed under Rattus norvegicus, 25%; in [2], 0.4%; in assay [3] it was 12.2%; with Penicillium decumbens it was 144%; in the assay with Aspergillus niger, 1.8%. Moreover, the inhibition in assay [5] stood at 0%; in the assay on Helix pomatia, 0.8%; in the assay filed under Sus scrofa, 1.5%; in the assay filed under Homo sapiens, 0%; in the assay filed under Bos taurus [6], 11.4%; in the assay filed under Bos taurus [7], 0%. Also, the inhibition was 3.7% with Prunus dulcis, 0% with Escherichia coli, 5.8% in the assay listed under Bos taurus [8] and 2.5% in the assay on Oryza sativa.
